Experimental data reported in ChEMBL document CHEMBL1177878, “Synthesis and hypolipidemic activity of novel 2-(4-(2-substituted aminothiazole-4-yl) phenoxy) acetic acid derivatives” (Eur J Med Chem, 2010).

Assays:
[1] = test system: Rattus norvegicus; experiment: Antihyperlipidemic activity in high fat diet-induced hyperlipidemic Sprague-Dawley rat model assessed as reduction of body circumference at 50 mg/kg, po for 7 days; type: functional
[2] = test system: Rattus norvegicus; experiment: Antihyperlipidemic activity in high fat diet-induced hyperlipidemic Sprague-Dawley rat model assessed as reduction of body weight at 50 mg/kg, po for 7 days; type: functional
[3] = test system: Rattus norvegicus; experiment: Antihyperlipidemic activity in high fat diet-induced hyperlipidemic Sprague-Dawley rat model assessed as reduction of blood LDL level at 50 mg/kg, po for 7 days (reference value: 51.8 +/- 2.03 mg/dl); type: functional
[4] = test system: Rattus norvegicus; experiment: Antihyperlipidemic activity in high fat diet-induced hyperlipidemic Sprague-Dawley rat model assessed as increase of blood HDL level at 50 mg/kg, po for 7 days (reference value: 18.6 +/- 1.36 mg/dl); type: functional
[5] = test system: Rattus norvegicus; experiment: Antihyperlipidemic activity in high fat diet-induced hyperlipidemic Sprague-Dawley rat model assessed as reduction of blood cholesterol level at 50 mg/kg, po for 7 days (reference value: 128.8 +/- 1.20 mg/dl); type: functional
[6] = test system: Rattus norvegicus; experiment: Antihyperlipidemic activity in high fat diet-induced hyperlipidemic Sprague-Dawley rat model assessed as reduction of blood triglyceride level at 50 mg/kg, po for 7 days (reference value: 142.4 +/- 1.53 mg/dl); type: functional
[7] = test system: Rattus norvegicus; experiment: Antihyperlipidemic activity in high fat diet-induced hyperlipidemic Sprague-Dawley rat model assessed as reduction of blood VLDL level at 50 mg/kg, po for 7 days (reference value: 26.2 +/- 1.20 mg/dl); type: functional
[8] = test system: Rattus norvegicus; experiment: Toxicity in high fat diet-induced hyperlipidemic Sprague-Dawley rat model assessed as increase of locomotor activity at 50 mg/kg, po for 7 days measured for 5 mins; type: organism-based; parameters: dose 50 mg/kg, route oral; conditions: in vivo
[9] = test system: Rattus norvegicus; experiment: Toxicity in high fat diet-induced hyperlipidemic Sprague-Dawley rat model assessed as increase of locomotor activity at 250 mg/kg, po for 7 days measured for 5 mins; type: organism-based; parameters: dose 250 mg/kg, route oral; conditions: in vivo
[10] = test system: Rattus norvegicus; experiment: Antihyperlipidemic activity in high fat diet-induced hyperlipidemic Sprague-Dawley rat model assessed as increase of blood HDL level at 250 mg/kg, po for 7 days (reference value: 18.6 +/- 1.36 mg/dl); type: functional
[11] = test system: Rattus norvegicus; experiment: Antihyperlipidemic activity in high fat diet-induced hyperlipidemic Sprague-Dawley rat model assessed as reduction of body circumference at 250 mg/kg, po for 7 days; type: functional
[12] = test system: Rattus norvegicus; experiment: Antihyperlipidemic activity in high fat diet-induced hyperlipidemic Sprague-Dawley rat model assessed as reduction of blood cholesterol level at 250 mg/kg, po for 7 days (reference value: 128.8 +/- 1.20 mg/dl); type: functional
[13] = test system: Rattus norvegicus; experiment: Antihyperlipidemic activity in high fat diet-induced hyperlipidemic Sprague-Dawley rat model assessed as reduction of blood LDL level at 250 mg/kg, po for 7 days (reference value: 51.8 +/- 2.03 mg/dl); type: functional
[14] = test system: Rattus norvegicus; experiment: Antihyperlipidemic activity in high fat diet-induced hyperlipidemic Sprague-Dawley rat model assessed as reduction of body weight at 250 mg/kg, po for 7 days; type: functional
[15] = test system: Rattus norvegicus; experiment: Antihyperlipidemic activity in high fat diet-induced hyperlipidemic Sprague-Dawley rat model assessed as reduction of blood triglyceride level at 250 mg/kg, po for 7 days (reference value: 142.4 +/- 1.53 mg/dl); type: functional

Compound: CCC(=O)Nc1nc(-c2ccc(OCC(=O)O)cc2)cs1
- Activity [1]: 10.483 cm
- Activity [2]: 224.166 g
- Activity [3]: 33 mg/dL
- Activity [4]: 30.4 mg/dL
- Activity [5]: 86.6 mg/dL
- Activity [6]: 103.6 mg/dL
- Activity [7]: 21 mg/dL
- Activity [8]: Toxic

Compound: Nc1ccc(C(=O)CNc2nc(-c3ccc(OCC(=O)O)cc3)cs2)cc1
- Activity [1]: 12 cm
- Activity [2]: 237.333 g
- Activity [3]: 36.8 mg/dL
- Activity [4]: 27 mg/dL
- Activity [5]: 77.6 mg/dL
- Activity [6]: 110.4 mg/dL
- Activity [7]: 26.2 mg/dL
- Activity [8]: Toxic

Compound: CC(=O)Nc1nc(-c2ccc(OCC(=O)O)cc2)cs1
- Activity [1]: 12.516 cm
- Activity [2]: 250.833 g
- Activity [3]: 51.4 mg/dL
- Activity [4]: 31.8 mg/dL
- Activity [5]: 104 mg/dL
- Activity [6]: 107.6 mg/dL
- Activity [7]: 22.6 mg/dL
- Activity [8]: Non-toxic

Compound: O=C(O)COc1ccc(-c2csc(NCC(=O)c3ccc(Cl)cc3)n2)cc1
- Activity [1]: 12.35 cm
- Activity [2]: 220.5 g
- Activity [3]: 50 mg/dL
- Activity [4]: 18.6 mg/dL
- Activity [5]: 119.2 mg/dL
- Activity [6]: 136.6 mg/dL
- Activity [7]: 27.2 mg/dL
- Activity [8]: Toxic

Compound: O=C(O)COc1ccc(-c2csc(NCC(=O)c3ccc([N+](=O)[O-])cc3)n2)cc1
- Activity [1]: 12.85 cm
- Activity [2]: 258.166 g
- Activity [3]: 43.2 mg/dL
- Activity [4]: 24.6 mg/dL
- Activity [5]: 106.8 mg/dL
- Activity [6]: 122.8 mg/dL
- Activity [7]: 20.2 mg/dL
- Activity [8]: Non-toxic

Compound: O=C(O)COc1ccc(-c2csc(NC(=O)CCl)n2)cc1
- Activity [1]: 9.5 cm
- Activity [2]: 230.666 g
- Activity [3]: 34.8 mg/dL
- Activity [4]: 34.4 mg/dL
- Activity [5]: 92 mg/dL
- Activity [6]: 118.4 mg/dL
- Activity [7]: 28 mg/dL
- Activity [8]: Toxic

Compound: CC(C)OC(=O)C(C)(C)Oc1ccc(C(=O)c2ccc(Cl)cc2)cc1 [FENOFIBRATE]
- Activity [9]: Toxic
- Activity [10]: 28.4 mg/dL
- Activity [11]: 9.5 cm
- Activity [12]: 83.2 mg/dL
- Activity [13]: 37.2 mg/dL
- Activity [14]: 229.666 g
- Activity [15]: 91.6 mg/dL

Compound: O=C(O)COc1ccc(-c2csc(NCc3ccccc3)n2)cc1
- Activity [1]: 13.066 cm
- Activity [2]: 248.5 g
- Activity [3]: 53.8 mg/dL
- Activity [4]: 20.2 mg/dL
- Activity [5]: 122.2 mg/dL
- Activity [6]: 140.2 mg/dL
- Activity [7]: 22.4 mg/dL
- Activity [8]: Toxic

Compound: O=C(O)COc1ccc(-c2csc(NC(=O)c3ccccc3)n2)cc1
- Activity [1]: 13.1 cm
- Activity [2]: 239.666 g
- Activity [3]: 34.2 mg/dL
- Activity [4]: 28.4 mg/dL
- Activity [5]: 89.2 mg/dL
- Activity [6]: 114.6 mg/dL
- Activity [7]: 25 mg/dL
- Activity [8]: Toxic
